Results from publication PMC11085077, “Designing Antitrypanosomal and Antileishmanial BODIPY Derivatives: A Computational and In Vitro Assessment” (Molecules, 2024).
Several values for one entry are separate records, joined by “and”; a condition that tells them apart may be missing. Equal entries are not always repeated.

Key:
Leishmania major = conditions: read-out: inhibitory concentration against L. major; cited from earlier work
Trypanosoma brucei = conditions: read-out: inhibitory concentration against T. brucei; cited from earlier work
T. brucei BSF = assay: Antitrypanosomal activity, alamarBlue assay; format: cell-based, Trypanosoma brucei; conditions: for Selectivity Index (SI) T. brucei: SI = IC50 MRC-5/IC50 parasite; for IC50: bloodstream form, 72 h incubation, alamarBlue, error reported as σ
Procedure: The in vitro antitrypanosomal and antileishmanial activity of the BODIPY derivatives were evaluated on the bloodstream form (BSF) of T. brucei and the promastigote form of L. major parasites. The toxicity of the compounds was determined after 72 h of incubation using the alamarBlue assay (for T. brucei) and the MTT assay (for L. major). The cytotoxicity of the compounds on a healthy human cell line (human lung fibroblast, MRC-5) was also determined after 72 h of incubation using the alamarBlue assay. The data were expressed as the half maximal inhibitory concentration (IC50). The selectivity index (SI) of each derivative was calculated by dividing the IC50 of MRC-5 cells into the IC50 of T. brucei or L. major.
T. brucei (Lister 427, antigenic type MiTat 1.2, clone 221a, bloodstream forms, “single marker” S427 (S16)) were cultured at 37 °C, 5% CO2 in HMI-9 medium supplemented with 10% heat-inactivated fetal bovine serum (hiFBS, Invitrogen, Carlsbad, CA, USA), as previously described.
The antitrypanosomal activity of the BODIPY derivatives was determined by the alamarBlue® assay (ThermoFisher Scientific, Waltham, MA, USA). The stock solutions of the compounds were prepared in DMSO and the final DMSO percentage in each well was adjusted to be less than 1%. A total of 2 × 10^4 parasites per mL were incubated at 37 °C, 5% CO2 in 96-well plates (50 μL/well) alone or in the presence of an increasing concentration of compounds for 72 h. A total of 20 μL of resazurin solution (110 ng/mL) was then added to each well, and the parasites were incubated for 4 h at 37 °C. Finally, cells were lysed with 50 μL per well of SDS 3%. The plate was incubated at 37 °C for an extra hour and then, fluorescence intensity was measured with an Infinite F200 plate reader (Tecan Austria, GmbH, Grödig, Austria), exciting at 550 nm and recording the emission at 590 nm. The results are expressed as the concentration of a compound that reduces cell growth by 50% versus untreated control cells (IC50). Data are presented as the average of at least three independent measurements, all conducted in triplicate conditions.

L. major promastigotes = assay: Antileishmanial activity, MTT-based assay; format: cell-based, Leishmania major; conditions: for IC50: promastigotes, 72 h incubation, MTT, error reported as σ; for Selectivity Index (SI) L. major: SI = IC50 MRC-5/IC50 parasite; for antileishmanial activity (in words): classification used for docking analysis
Procedure: The in vitro antitrypanosomal and antileishmanial activity of the BODIPY derivatives were evaluated on the bloodstream form (BSF) of T. brucei and the promastigote form of L. major parasites. The toxicity of the compounds was determined after 72 h of incubation using the alamarBlue assay (for T. brucei) and the MTT assay (for L. major). The cytotoxicity of the compounds on a healthy human cell line (human lung fibroblast, MRC-5) was also determined after 72 h of incubation using the alamarBlue assay. The data were expressed as the half maximal inhibitory concentration (IC50). The selectivity index (SI) of each derivative was calculated by dividing the IC50 of MRC-5 cells into the IC50 of T. brucei or L. major. L. major (MHOM/IL/80/Friedlin) promastigotes were cultured at 28 °C, 5% CO2 in modified RPMI-1640 medium (Invitrogen, Carlsbad, CA, USA) supplemented with 10% hiFBS [49]. Parasites were maintained in culture in their […] growth phase (below 2 million parasites per mL for T. brucei and 10 million parasites per mL for L. major). The antileishmanial activity of the BODIPY derivatives was assessed using an MTT-based assay (Sigma-Aldrich, St. Louis, MO, USA). The stock solutions of the compounds were prepared in DMSO and the final DMSO percentage in each well was adjusted to be less than 1%. A total of 4 × 10^6 parasites per mL were incubated at 28 °C in 96-well plates (50 μL/well) alone or in the presence of an increasing concentration of compounds DMSO for 72 h. A total of 10 μL of MTT (5 mg/mL) were added to each well and parasites were incubated for 4 h at 28 °C. Finally, cells were lysed with 50 μL/well of 20% SDS. The plate was incubated at 37 °C for an extra hour and then, absorbance was measured at the Infinite F200 plate reader (TECAN Austria, GmbH, Grödig, Austria) at a wavelength of 540 nm. The IC50 was calculated as described above. Data are presented as the average of at least three independent measurements, all conducted in triplicate conditions.

[1] = Solubility in water (statement); format: physicochemical
[2] = tested on: MRC-5 cell line (human lung fibroblast); assay: Cytotoxicity, alamarBlue assay; format: cell-based; conditions: 72 h incubation, error reported as σ
Procedure: The in vitro antitrypanosomal and antileishmanial activity of the BODIPY derivatives were evaluated on the bloodstream form (BSF) of T. brucei and the promastigote form of L. major parasites. The toxicity of the compounds was determined after 72 h of incubation using the alamarBlue assay (for T. brucei) and the MTT assay (for L. major). The cytotoxicity of the compounds on a healthy human cell line (human lung fibroblast, MRC-5) was also determined after 72 h of incubation using the alamarBlue assay. The data were expressed as the half maximal inhibitory concentration (IC50). The selectivity index (SI) of each derivative was calculated by dividing the IC50 of MRC-5 cells into the IC50 of T. brucei or L. major. MRC-5 cell line (human lung fibroblast) was grown in a monolayer at 37 °C, 5% CO2 in DMEM medium (1 g/L glucose) supplemented with 10% hiFBS, 100 U/mL penicillin, […] and 2 mM L-glutamine. Cytotoxicity was measured in MRC-5 through alamarBlue® assay (ThermoFisher Scientific). The stock solutions of the compounds were prepared in DMSO and the final DMSO percentage in each well was adjusted to be less than 1%. A total of 5 × 10^3 cells per mL were seeded in 96-well plates (100 μL/well) with 24 h of incubation time before compound addition at 37 °C, 5% CO2. Then, the compounds were added at increasing concentrations (from 0 to 100 μM) and the plates were incubated for 72 h. A total of 20 μL of resazurin solution (110 ng/mL) was added to each well and cells were incubated for 4 h. Then, cells were lysed with 50 μL/well of 3% SDS. The plate was incubated at 37 °C for an extra hour and then, the fluorescence intensity was measured at the Infinite F200 plate reader (TECAN Austria, GmbH), exciting at 550 nm and recording the emission at 590 nm. The results are expressed as the concentration of a compound that reduces cell growth by 50% versus untreated control cells (IC50). Data are presented as the average of at least three independent measurements, all conducted in triplicate conditions.

IC50 (T. brucei BSF; Trypanosoma brucei) [µM]	IC50 (L. major promastigotes; Leishmania major) [µM]	solubility in water (in words) [1]	IC50 (T. brucei BSF) [µM]	IC50 (L. major promastigotes) [µM]	SMILES	IC50 (Leishmania major) [µM]	IC50 (Trypanosoma brucei) [µM]	Selectivity Index (SI) T. brucei (T. brucei BSF)	Selectivity Index (SI) L. major (L. major promastigotes)	IC50 ([2]; MRC5, healthy human lung fibroblasts) [µM]	IC50 ([2]; healthy human lung fibroblasts) [µM]	antitrypanosomal activity (in words) (T. brucei BSF; classification used for docking analysis)	antileishmanial activity (in words) (L. major promastigotes)
					CN(Cc1cnc2nc(N)nc(N)c2n1)c1ccc(C(=O)N[C@@H](CCC(=O)O)C(=O)O)cc1 [methotrexate]	3.6	2.7						
28.1 ± 1.77	> 50	low solubility in water			CC1=C(I)C(C)=[N+]2C1=C(c1c3ccccc3cc3ccccc13)c1c(C)c(I)c(C)n1[B-]2(F)F [Compound 4c]			1.72	<0.96	48.2 ± 1.13			
			77.4 ± 3.46	> 100	CC1=CC(C)=[N+]2C1=C(c1ccc3ccccc3n1)c1c(C)cc(C)n1[B-]2(F)F [Compound 1h]			1.24	<0.96		95.6 ± 3.45		
			18.7 ± 2.67	> 100	CCn1c2ccccc2c2cc(C3=C4C(C)=CC(C)=[N+]4[B-](F)(F)n4c(C)cc(C)c43)ccc21 [Compound 1e]			4.77	<0.89		88.9 ± 3.82		
			2.84 ± 0.04	15.8 ± 1.31	CC1=CC(C)=[N+]2C1=C(c1ccc(N(C)C)c3ccccc13)c1c(C)c(C=O)c(C)n1[B-]2(F)F [Compound 2b]			24 and 24.34	4.39		69.1 ± 4.9	present antitrypanosomal activity	present antileishmanial activity
			55.7 ± 1.65	> 100	CC1=CC(C)=[N+]2C1=C(c1nccs1)c1c(C)cc(C)n1[B-]2(F)F [Compound 1g]			1.49	<0.83		82.8 ± 1.2		
			48.8 ± 3.29	> 100	CC1=CC(C)=[N+]2C1=C(c1ccc(N(c3ccccc3)c3ccccc3)cc1)c1c(C)cc(C)n1[B-]2(F)F [Compound 1d]			1.87	<0.91		91.3 ± 6.31		
			77.1 ± 2.98	5.41 ± 0.43	CC1=CC(C)=[N+]2C1=C(c1c3ccccc3cc3ccccc13)c1c(C)cc(C)n1[B-]2(F)F [Compound 1c]			1.07	18		82.14 ± 0.03		present antileishmanial activity
